Biological target: T1, P2X3 receptor (Mus musculus, UniProt Q3UR32)
T1 construct: gene P2rx3; native receptor in cultured mouse trigeminal ganglion neurons (WT)
T1 sequence (Q3UR32 1-397): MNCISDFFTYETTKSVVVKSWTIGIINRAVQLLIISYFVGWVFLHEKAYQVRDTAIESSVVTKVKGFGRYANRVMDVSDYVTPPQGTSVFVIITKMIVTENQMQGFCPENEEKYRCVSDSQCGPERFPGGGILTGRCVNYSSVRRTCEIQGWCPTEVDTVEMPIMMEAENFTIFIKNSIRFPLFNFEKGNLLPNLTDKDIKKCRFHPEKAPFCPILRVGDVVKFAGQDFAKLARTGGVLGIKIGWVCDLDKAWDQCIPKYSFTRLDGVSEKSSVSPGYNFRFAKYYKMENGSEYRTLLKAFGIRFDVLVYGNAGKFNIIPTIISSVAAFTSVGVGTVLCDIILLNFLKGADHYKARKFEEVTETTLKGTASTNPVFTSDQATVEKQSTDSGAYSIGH
Test: whole-cell patch clamp, agonist concentration-response on native neurons
Assay type: cell-based

Nc1ncnc2c1ncn2[C@@H]1O[C@H](COP(=O)(O)CP(=O)(O)OP(=O)(O)O)[C@@H](O)[C@H]1O [α,β-meATP]
EC50: 6.9 ± 1.1 µM
